Laboratory results as given in patent publication US20090239840A1, “AMINO SUBSTITUTED DIARYL[a,d]CYCLOHEPTENE ANALOGS AS [sequence] AGONISTS AND METHODS OF TREATMENT OF NEUROPSYCHIATRIC DISORDERS” (ACADIA PHARMACEUTICALS, INC., priority 2003, published 2009).

How the values were obtained:
muscarinic M1 receptor = target: T1, muscarinic M1 receptor (Homo sapiens, UniProt P11229); experiment: R-SAT functional screen, M1; type: cell-based; conditions: R-SAT
T1 construct: expressed in transfected cells
T1 sequence (P11229 1-460): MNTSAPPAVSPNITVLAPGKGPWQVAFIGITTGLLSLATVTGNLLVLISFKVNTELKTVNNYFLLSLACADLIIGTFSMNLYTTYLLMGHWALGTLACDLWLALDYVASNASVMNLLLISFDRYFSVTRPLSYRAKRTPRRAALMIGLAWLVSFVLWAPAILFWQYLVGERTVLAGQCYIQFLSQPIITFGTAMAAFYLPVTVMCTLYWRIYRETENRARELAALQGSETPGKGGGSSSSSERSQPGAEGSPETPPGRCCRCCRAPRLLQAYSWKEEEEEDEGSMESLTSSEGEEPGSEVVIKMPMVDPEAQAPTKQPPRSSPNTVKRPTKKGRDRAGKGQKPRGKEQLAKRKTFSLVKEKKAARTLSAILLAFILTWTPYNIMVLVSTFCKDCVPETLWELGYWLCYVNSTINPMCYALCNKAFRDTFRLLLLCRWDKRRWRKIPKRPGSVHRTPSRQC
Method in brief: (§1)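 Receptor Selection and Amplification Technology (R-SAT) functional cell assay at M1, M2, M3 receptors. Values reported as efficacy (eff) and potency as pEC50.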

muscarinic M2 receptor = target: T2, muscarinic M2 receptor (Homo sapiens, UniProt P08172); experiment: R-SAT functional screen, M2; type: cell-based; conditions: R-SAT
T2 construct: expressed in transfected cells
T2 sequence (P08172 1-466): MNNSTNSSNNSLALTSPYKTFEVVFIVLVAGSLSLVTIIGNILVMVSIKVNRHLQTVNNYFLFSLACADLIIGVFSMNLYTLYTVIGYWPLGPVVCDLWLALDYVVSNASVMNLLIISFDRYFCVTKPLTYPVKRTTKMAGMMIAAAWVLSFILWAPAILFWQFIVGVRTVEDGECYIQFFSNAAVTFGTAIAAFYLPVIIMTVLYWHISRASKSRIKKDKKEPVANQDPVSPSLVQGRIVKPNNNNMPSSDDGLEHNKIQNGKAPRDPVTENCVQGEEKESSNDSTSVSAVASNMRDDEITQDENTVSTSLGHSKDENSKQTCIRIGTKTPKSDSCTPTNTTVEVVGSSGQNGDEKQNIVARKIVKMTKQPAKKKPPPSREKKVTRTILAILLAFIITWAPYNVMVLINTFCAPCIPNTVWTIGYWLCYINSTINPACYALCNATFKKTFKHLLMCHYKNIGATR
Method in brief: as §1

muscarinic M3 receptor = target: T3, muscarinic M3 receptor (Homo sapiens, UniProt P20309); experiment: R-SAT functional screen, M3; type: cell-based
T3 construct: expressed in transfected cells
Description: The term “modulate” refers to the ability of a compound disclosed herein to alter the function of a muscarinic receptor. A modulator may activate the activity of a muscarinic receptor, may activate or inhibit the activity of a muscarinic receptor depending on the concentration of the compound exposed to the muscarinic receptor, or may inhibit the activity of a muscarinic receptor. The term “modulate” also refers to altering the function of a muscarinic receptor by increasing or decreasing the probability that a complex forms between a muscarinic receptor and a natural binding partner. A modulator may increase the probability that such a complex forms between the muscarinic receptor and the natural binding partner, may increase or decrease the probability that a complex forms between the muscarinic receptor and the natural binding partner depending on the concentration of the compound exposed to the muscarinic receptor, and or may decrease the probability that a complex forms between the muscarinic receptor and the natural binding partner. In some embodiments, modulation of the muscarinic receptor may be assessed using Receptor Selection and Amplification Technology (R-SAT) as described in U.S. Pat. No. 5,707,798, the disclosure of which is incorporated herein by reference in its entirety.
Several compounds disclosed herein were evaluated for activity at muscarinic receptors using Receptor Selection and Amplification Technology (R-SAT) as described in U.S. Pat. No. 5,707,798, the disclosure of which is incorporated herein by reference in its entirety. The efficacy (eff) and potency (expressed as pEC50) of these compounds are presented in Table 1 at M1, M2, and M3 receptors.

5-HT2A receptor = 5-HT2A receptor (Homo sapiens, UniProt P28223); experiment: Receptor profile, 5-HT2A inverse agonism; type: cell-based; conditions: negative log of the inhibitory IC50 (inverse agonism); read-out: 5-HT2A pIEC50 (converted)
[1] = tested on: hyperactivity induced by MK-801; experiment: MK-801 induced hyperactivity mouse model; type: in vivo; conditions: mice, sc, salts of the compounds
Description: (§2) Five of the compounds listed in Table 2 were tested in an in vivo assay predictive of antipsychotic activity. Salts of these compounds where administered to mice having hyperactivity induced by amphetamine or MK-801 administration. The compounds were administered both subcutaneously (sc) and orally (po).

[2] = tested on: hyperactivity induced by amphetamine; experiment: Amphetamine induced hyperactivity mouse model; type: in vivo; conditions: mice, salts of the compounds
Description: as §2

novel object recognition = experiment: Novel object recognition (NOR) assay; type: in vivo; conditions: mice
Description: Salts of the compounds were administered to mice at one hour post-training (a time-point at which animals normally behaviorally discriminate between novel and familiar objects) and two hours post-training (a time-point at which these animals normally no longer discriminate between objects). Doses were selected to correspond to the approximate ID75 value in the MK-801 hyperactivity assay.

Ames mutagenesis assay = type: cell-based; conditions: to 10 μM (cytotoxicity precluded evaluation of all concentrations)
hERG = hERG (Homo sapiens, UniProt Q12809); experiment: hERG assay
CYP 3A4 = CYP 3A4 (Homo sapiens, UniProt P08684); experiment: biochemical
Description: The compounds listed in Table 4 were profiled in a panel of in vitro assays for assessment of cardiovascular (hERG), drug-drug interaction (CYP inhibition), and mutagenic (Ames) liability. Microsomal stability was also determined by measuring both rat and human microsomal clearance.

CYP 2C9 = CYP 2C9 (Homo sapiens, UniProt P11712); experiment: CYP inhibition, 2C9; type: in vitro ADME
CYP 1A2 = target: T4, CYP 1A2 (Homo sapiens, UniProt P05177); experiment: CYP inhibition, 1A2; type: in vitro ADME
T4 sequence (P05177 1-516): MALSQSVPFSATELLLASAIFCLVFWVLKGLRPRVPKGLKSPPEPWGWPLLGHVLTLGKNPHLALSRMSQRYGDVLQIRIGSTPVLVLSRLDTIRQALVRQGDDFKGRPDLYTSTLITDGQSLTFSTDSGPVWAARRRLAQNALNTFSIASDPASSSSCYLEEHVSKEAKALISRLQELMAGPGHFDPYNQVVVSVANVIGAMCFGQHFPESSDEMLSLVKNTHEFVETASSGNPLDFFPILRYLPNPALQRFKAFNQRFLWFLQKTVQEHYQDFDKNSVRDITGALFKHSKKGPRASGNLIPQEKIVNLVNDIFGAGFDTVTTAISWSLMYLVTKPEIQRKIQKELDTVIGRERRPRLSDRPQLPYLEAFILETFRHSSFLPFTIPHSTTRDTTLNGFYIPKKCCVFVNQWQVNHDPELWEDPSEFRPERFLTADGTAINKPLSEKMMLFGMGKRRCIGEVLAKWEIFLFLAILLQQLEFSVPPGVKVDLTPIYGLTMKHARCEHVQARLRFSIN

CYP 2C19 = CYP 2C19 (Homo sapiens, UniProt P33261); experiment: CYP inhibition, 2C19; type: in vitro ADME
CYP 2D6 = CYP 2D6 (Homo sapiens, UniProt P10635); experiment: CYP inhibition, 2D6; type: in vitro ADME
Rat microsomal clearance = type: in vitro ADME; conditions: rat microsomes
[3] = Human microsomal clearance; type: in vitro ADME; conditions: human microsomes
M1 receptor = target: T5, M1 receptor (Homo sapiens, UniProt P11229); experiment: Receptor profile, M1 agonist activity
T5 sequence (P11229 1-460): T1 sequence (P11229 1-460)
Description: (§3) Intrinsic activity was normalized to carbachol (M1) or pergolide (D2). For those ligands devoid of agonist activity, the values shown are pKi determined using [3H]raclopride.

D2 receptor = D2 receptor (Homo sapiens, UniProt P14416); experiment: Receptor profile, D2 agonist activity
Description: as §3

[4] = dose approx. ID75 in MK-801 hyperactivity assay

Sequence of D2 receptor (P14416 whole entry): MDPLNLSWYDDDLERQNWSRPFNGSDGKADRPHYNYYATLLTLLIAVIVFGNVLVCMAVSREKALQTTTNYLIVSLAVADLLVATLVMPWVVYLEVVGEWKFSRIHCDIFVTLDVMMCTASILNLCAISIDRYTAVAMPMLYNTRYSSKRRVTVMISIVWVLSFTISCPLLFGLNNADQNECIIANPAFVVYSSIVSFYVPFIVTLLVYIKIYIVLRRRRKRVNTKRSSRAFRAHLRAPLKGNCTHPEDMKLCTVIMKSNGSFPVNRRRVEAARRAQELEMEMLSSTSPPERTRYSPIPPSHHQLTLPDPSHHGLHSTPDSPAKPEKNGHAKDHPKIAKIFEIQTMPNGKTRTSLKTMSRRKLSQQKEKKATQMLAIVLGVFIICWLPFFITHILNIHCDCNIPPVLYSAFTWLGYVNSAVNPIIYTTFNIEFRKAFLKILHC
T3 sequence (P20309 whole entry): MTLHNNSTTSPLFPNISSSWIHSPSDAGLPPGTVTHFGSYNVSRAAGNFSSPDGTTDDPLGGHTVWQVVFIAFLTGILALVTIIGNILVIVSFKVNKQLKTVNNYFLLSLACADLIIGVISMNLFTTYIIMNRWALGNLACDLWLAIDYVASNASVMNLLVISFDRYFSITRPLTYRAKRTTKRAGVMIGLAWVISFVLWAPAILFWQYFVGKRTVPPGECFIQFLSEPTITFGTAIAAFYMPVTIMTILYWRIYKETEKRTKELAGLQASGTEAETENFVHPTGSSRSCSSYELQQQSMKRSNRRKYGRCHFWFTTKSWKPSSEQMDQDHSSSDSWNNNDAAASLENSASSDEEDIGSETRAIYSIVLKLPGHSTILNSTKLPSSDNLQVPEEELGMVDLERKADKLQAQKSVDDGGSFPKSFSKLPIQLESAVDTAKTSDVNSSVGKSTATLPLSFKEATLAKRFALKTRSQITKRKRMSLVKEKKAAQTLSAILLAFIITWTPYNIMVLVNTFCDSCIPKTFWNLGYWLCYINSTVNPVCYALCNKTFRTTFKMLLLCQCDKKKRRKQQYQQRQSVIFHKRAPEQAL
Sequence of 5-HT2A receptor (P28223 whole entry): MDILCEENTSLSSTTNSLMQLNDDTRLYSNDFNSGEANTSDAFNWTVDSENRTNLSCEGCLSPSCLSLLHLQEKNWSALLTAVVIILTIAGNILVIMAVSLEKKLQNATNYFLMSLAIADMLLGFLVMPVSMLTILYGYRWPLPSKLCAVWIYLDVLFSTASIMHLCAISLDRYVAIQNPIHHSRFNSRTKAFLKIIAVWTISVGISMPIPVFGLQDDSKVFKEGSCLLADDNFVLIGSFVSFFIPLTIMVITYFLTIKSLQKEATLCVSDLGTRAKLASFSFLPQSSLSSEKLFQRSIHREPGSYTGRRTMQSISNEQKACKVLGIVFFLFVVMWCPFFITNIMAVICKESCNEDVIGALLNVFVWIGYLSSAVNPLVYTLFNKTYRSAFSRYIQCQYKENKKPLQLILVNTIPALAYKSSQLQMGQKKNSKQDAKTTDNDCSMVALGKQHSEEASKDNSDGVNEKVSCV
Sequence of CYP 2C9 (P11712 whole entry): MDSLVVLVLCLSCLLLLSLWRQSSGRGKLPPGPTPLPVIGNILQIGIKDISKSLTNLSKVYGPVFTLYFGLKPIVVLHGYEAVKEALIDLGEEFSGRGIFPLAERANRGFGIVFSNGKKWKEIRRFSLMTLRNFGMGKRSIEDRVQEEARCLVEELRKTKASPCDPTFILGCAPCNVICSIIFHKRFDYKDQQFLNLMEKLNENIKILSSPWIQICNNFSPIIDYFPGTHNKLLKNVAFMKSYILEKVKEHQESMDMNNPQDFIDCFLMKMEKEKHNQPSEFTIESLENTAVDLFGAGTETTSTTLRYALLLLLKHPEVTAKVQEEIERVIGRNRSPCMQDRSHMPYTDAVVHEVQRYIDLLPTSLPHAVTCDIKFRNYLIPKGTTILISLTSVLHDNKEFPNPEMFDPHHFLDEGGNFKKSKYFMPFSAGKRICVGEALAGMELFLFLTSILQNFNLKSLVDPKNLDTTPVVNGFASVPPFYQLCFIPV
Sequence of CYP 3A4 (P08684 whole entry): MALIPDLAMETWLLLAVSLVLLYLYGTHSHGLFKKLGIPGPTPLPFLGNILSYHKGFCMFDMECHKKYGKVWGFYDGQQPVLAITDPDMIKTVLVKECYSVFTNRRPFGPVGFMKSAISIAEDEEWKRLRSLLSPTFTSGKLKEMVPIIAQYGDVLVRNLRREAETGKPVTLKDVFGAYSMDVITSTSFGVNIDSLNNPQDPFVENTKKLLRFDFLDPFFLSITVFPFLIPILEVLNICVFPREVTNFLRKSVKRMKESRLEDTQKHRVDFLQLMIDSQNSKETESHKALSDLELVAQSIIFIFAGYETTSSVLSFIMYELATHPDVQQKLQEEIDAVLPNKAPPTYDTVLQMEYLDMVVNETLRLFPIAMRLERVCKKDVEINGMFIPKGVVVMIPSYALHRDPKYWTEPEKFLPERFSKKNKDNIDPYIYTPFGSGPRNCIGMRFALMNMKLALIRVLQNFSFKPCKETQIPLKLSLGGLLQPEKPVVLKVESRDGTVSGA
Sequence of CYP 2D6 (P10635 whole entry): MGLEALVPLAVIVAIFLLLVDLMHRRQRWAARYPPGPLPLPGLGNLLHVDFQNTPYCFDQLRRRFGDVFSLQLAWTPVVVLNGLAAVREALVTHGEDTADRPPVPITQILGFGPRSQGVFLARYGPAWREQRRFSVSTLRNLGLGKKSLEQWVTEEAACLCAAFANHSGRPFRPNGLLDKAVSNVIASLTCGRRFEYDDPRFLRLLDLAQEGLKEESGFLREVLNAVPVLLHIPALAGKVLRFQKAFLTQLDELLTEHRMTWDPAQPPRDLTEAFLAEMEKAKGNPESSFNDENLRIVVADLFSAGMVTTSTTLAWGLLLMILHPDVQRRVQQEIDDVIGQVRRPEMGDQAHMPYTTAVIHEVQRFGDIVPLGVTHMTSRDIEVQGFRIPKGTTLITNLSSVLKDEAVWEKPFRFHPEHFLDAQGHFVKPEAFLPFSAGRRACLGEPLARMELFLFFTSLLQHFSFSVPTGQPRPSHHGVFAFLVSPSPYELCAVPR
Sequence of CYP 2C19 (P33261 whole entry): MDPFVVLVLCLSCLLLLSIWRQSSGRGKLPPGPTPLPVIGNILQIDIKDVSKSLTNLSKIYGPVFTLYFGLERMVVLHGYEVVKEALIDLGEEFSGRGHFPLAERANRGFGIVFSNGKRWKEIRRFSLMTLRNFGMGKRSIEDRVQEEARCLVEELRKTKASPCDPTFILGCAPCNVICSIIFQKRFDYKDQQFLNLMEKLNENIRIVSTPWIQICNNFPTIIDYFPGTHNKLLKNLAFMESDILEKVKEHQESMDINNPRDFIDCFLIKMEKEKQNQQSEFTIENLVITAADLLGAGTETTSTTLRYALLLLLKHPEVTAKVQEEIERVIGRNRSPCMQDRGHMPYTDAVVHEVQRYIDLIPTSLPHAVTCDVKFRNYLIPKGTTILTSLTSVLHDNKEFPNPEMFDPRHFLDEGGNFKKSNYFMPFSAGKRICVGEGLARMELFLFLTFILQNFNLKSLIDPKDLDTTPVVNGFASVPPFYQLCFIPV
Sequence of hERG (Q12809 whole entry): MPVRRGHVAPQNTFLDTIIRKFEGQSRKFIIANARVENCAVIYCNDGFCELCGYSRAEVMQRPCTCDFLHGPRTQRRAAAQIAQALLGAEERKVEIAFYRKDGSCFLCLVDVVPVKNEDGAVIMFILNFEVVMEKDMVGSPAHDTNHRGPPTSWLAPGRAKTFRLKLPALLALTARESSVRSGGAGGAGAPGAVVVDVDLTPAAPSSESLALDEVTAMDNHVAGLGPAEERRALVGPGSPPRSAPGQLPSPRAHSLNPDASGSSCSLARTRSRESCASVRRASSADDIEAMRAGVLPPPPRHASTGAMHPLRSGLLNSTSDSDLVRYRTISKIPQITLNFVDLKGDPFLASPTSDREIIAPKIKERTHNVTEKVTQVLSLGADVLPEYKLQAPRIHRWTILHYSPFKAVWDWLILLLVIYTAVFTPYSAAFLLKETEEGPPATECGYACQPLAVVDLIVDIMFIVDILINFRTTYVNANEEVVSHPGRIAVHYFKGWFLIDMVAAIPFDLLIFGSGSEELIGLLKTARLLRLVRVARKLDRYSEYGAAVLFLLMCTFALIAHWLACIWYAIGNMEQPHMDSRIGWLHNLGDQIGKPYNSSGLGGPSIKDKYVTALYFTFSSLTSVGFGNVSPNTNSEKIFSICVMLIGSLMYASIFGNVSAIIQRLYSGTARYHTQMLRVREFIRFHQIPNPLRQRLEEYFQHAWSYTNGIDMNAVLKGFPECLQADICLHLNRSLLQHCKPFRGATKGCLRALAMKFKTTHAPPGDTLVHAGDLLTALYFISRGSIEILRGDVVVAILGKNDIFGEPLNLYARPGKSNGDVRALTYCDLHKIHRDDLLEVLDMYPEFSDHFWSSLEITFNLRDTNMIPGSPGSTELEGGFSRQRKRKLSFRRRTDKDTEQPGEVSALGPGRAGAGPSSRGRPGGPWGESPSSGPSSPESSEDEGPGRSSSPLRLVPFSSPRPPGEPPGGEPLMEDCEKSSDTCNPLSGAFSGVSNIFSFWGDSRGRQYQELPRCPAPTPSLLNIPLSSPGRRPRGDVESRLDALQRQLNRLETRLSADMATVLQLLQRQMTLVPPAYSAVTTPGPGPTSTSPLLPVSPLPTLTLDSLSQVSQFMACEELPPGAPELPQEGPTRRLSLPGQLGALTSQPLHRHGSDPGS

For `CN1c2ccc(Cl)cc2N=C(N2CCNCC2)c2ccccc21` [8-Chloro-5-methyl-11-(piperazin-1-yl)-5H-dibenzo[b,e][1,4]diazepine], the Emax (muscarinic M1 receptor; read-out: M1 eff (efficacy)) was 65%, the EC50 (muscarinic M1 receptor; read-out: M1 pEC50 (converted)) was 79.4 nM and the Emax (muscarinic M2 receptor; read-out: M2 eff (efficacy)) was 138%. The EC50 (muscarinic M2 receptor; read-out: M2 pEC50 (converted)) was 1260 nM, the “M3 eff (efficacy)” value (muscarinic M3 receptor) was 14 and the IC50 (5-HT2A receptor) was > 10000 nM. The “MK-801 model (ID50 mg/kg sc)” value [1] was 1.5 mg/kg, the “Amphetamine model (ID50 mg/kg po)” value ([2]; po) was >10 mg/kg and the “Amphetamine model (ID50 mg/kg sc)” value ([2]; sc) was 6.0 mg/kg. For the same compound, the “NOR Interpretation” value (novel object recognition) was “no effect”, the “NOR - 60 minutes post training” value (novel object recognition; [4]) was “retained” and the “NOR - 120 minutes post training” value (novel object recognition; [4]) was “not retained”. The Ames (Ames mutagenesis assay) was “Neg”, the IC50 (hERG) was 1300 nM and the IC50 (CYP 3A4) was 400 nM. The IC50 (CYP 2C9) was > 10000 nM, the IC50 (CYP 1A2) was > 10000 nM and the IC50 (CYP 2C19) was > 10000 nM. The IC50 (CYP 2D6) was > 10000 nM, the microsomal CLint (Rat microsomal clearance) was 1090 µL/min/mg and the microsomal CLint [3] was 23 µL/min/mg. It also gave an EC50 (M1 receptor) of 79.4 nM, an Emax (M1 receptor; read-out: M1 intrinsic activity %) of 65% and an EC50 (D2 receptor) of 15.8 nM. For the same compound, the Emax (D2 receptor; read-out: D2 intrinsic activity %) was 29%.
